According to the supplement of paper PMC10307832:

Assays:
Experiment in all cases: relative viability (nuclei count vs DMSO), 5 days (fraction); higher = more cells survive
BX 795 + Decitabine = compound: O=C(NCCCNc1nc(Nc2cccc(NC(=O)N3CCCC3)c2)ncc1I)c1cccs1 [BX 795] + Nc1ncn([C@H]2C[C@H](O)[C@@H](CO)O2)c(=O)n1 [Decitabine] (partner 2 µM)
Procedure, shortened: (§1)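 A single step with final 0.05% Triton X-100, 1% formaldehyde and 1 ug/ml Hoechst fixed the cells and stained nuclei 5 days after treatment. Lung cancer cell lines in 1536-well plates had been treated by pin tool the day after seeding with one drug alone or a fixed anchor-drug dose plus five library-drug doses (not always all listed) in √10 steps, and nuclei were counted on 4× images. Relative viability is the ratio of nuclei in treated wells to nuclei in vehicle wells, taken as the median of duplicate plates.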

BX 795 + Lapatinib = compound: O=C(NCCCNc1nc(Nc2cccc(NC(=O)N3CCCC3)c2)ncc1I)c1cccs1 [BX 795] + CS(=O)(=O)CCNCc1ccc(-c2ccc3ncnc(Nc4ccc(OCc5cccc(F)c5)c(Cl)c4)c3c2)o1 [Lapatinib] (partner 2 µM)
Procedure, shortened: as §1

BX 795 + Dasatinib = compound: O=C(NCCCNc1nc(Nc2cccc(NC(=O)N3CCCC3)c2)ncc1I)c1cccs1 [BX 795] + Cc1nc(Nc2ncc(C(=O)Nc3c(C)cccc3Cl)s2)cc(N2CCN(CCO)CC2)n1 [Dasatinib] (partner 0.075 µM)
Procedure, shortened: as §1

BX 795 + Vorinostat = compound: O=C(NCCCNc1nc(Nc2cccc(NC(=O)N3CCCC3)c2)ncc1I)c1cccs1 [BX 795] + O=C(CCCCCCC(=O)Nc1ccccc1)NO [Vorinostat] (partner 1 µM)
Procedure, shortened: as §1

BX 795 + Olaparib = compound: O=C(NCCCNc1nc(Nc2cccc(NC(=O)N3CCCC3)c2)ncc1I)c1cccs1 [BX 795] + O=C(c1cc(Cc2n[nH]c(=O)c3ccccc23)ccc1F)N1CCN(C(=O)C2CC2)CC1 [Olaparib] (partner 8 µM)
Procedure, shortened: as §1

Row | Cell Line | relative viability (BX 795 + Decitabine; first compound 0.04 µM) | relative viability (BX 795 + Decitabine; first compound 0.1265 µM) | relative viability (BX 795 + Decitabine; first compound 0.4 µM) | relative viability (BX 795 + Decitabine; first compound 1.265 µM) | relative viability (BX 795 + Lapatinib; first compound 0.04 µM) | relative viability (BX 795 + Lapatinib; first compound 0.1265 µM) | relative viability (BX 795 + Lapatinib; first compound 0.4 µM) | relative viability (BX 795 + Lapatinib; first compound 1.265 µM) | relative viability (BX 795 + Dasatinib; first compound 0.04 µM) | relative viability (BX 795 + Dasatinib; first compound 0.1265 µM) | relative viability (BX 795 + Dasatinib; first compound 0.4 µM) | relative viability (BX 795 + Dasatinib; first compound 1.265 µM) | relative viability (BX 795 + Vorinostat; first compound 0.04 µM) | relative viability (BX 795 + Vorinostat; first compound 0.1265 µM) | relative viability (BX 795 + Vorinostat; first compound 0.4 µM) | relative viability (BX 795 + Vorinostat; first compound 1.265 µM) | relative viability (BX 795 + Olaparib; first compound 0.04 µM) | relative viability (BX 795 + Olaparib; first compound 0.1265 µM) | relative viability (BX 795 + Olaparib; first compound 0.4 µM) | relative viability (BX 795 + Olaparib; first compound 1.265 µM)
1 | 201T | 0.886 | 0.871 | 1 | 0.867 | 1.1 | 1.04 | 1.12 | 1.01 | 0.627 | 0.617 | 0.629 | 0.635 | 1.06 | 0.991 | 1.23 | 1.12 | 0.657 | 0.851 | 0.899 | 0.856
2 | A-427 | 0.588 | 0.588 | 0.545 | 0.516 | 0.842 | 1 | 1.06 | 0.886 | 0.796 | 0.611 | 0.709 | 0.545 | 0.915 | 0.812 | 0.872 | 0.754 | 0.826 | 0.68 | 0.672 | 0.641
3 | ABC-1 | 1.03 |  | 1.3 | 1.49 | 1.17 | 1.58 | 1.14 | 0.917 | 0.522 | 0.618 | 0.557 | 0.546 | 0.961 |  | 1.24 | 0.922 | 1.07 |  | 0.962 | 0.526
4 | BEN | 0.886 | 0.709 | 0.673 | 0.672 | 0.663 | 0.841 | 0.607 | 0.672 | 0.334 | 0.315 | 0.367 | 0.299 | 0.591 | 0.559 | 0.582 | 0.526 | 1.19 | 1.34 | 0.797 | 1.04
5 | CAL-12T |  |  |  |  | 0.738 | 0.624 | 0.608 | 0.29 | 0.521 | 0.387 | 0.281 | 0.129 | 0.661 | 0.715 | 0.523 | 0.413 | 0.877 | 0.769 | 0.725 | 0.41
6 | COR-L23 | 0.53 | 0.42 | 0.516 | 0.319 | 1.14 | 1.17 | 0.884 | 0.663 | 0.533 | 0.496 | 0.382 | 0.298 | 0.379 | 0.458 | 0.205 | 0.106 | 0.328 | 0.311 | 0.247 | 0.166
7 | COR-L 105 | 0.636 | 0.589 | 0.507 | 0.603 | 0.354 | 0.334 | 0.308 | 0.293 | 0.367 | 0.357 | 0.278 | 0.255 | 0.835 | 0.702 | 0.622 | 0.429 | 0.705 | 0.491 | 0.644 | 0.562
8 | ChaGo-K-1 | 0.535 | 0.544 | 0.538 | 0.398 |  |  |  |  | 0.5 | 0.586 | 0.507 | 0.546 | 0.809 | 0.771 | 0.725 | 0.668 | 0.424 | 0.447 | 0.415 | 0.311
9 | EKVX | 0.356 | 0.336 | 0.382 | 0.377 | 0.248 | 0.367 | 0.243 | 0.208 | 0.637 | 0.295 | 0.539 | 0.508 | 0.865 | 0.696 | 0.738 | 0.537 | 0.833 | 0.783 | 0.666 | 0.807
10 | EMC-BAC-2 | 1.02 | 1.03 | 0.962 | 0.736 | 0.907 | 0.905 | 0.884 | 0.758 | 0.296 | 0.371 | 0.287 | 0.265 | 0.393 | 0.261 | 0.411 | 0.198 | 0.563 | 0.369 | 0.494 | 0.323
11 | EPLC-272H | 0.356 | 0.472 | 0.374 | 0.305 | 1.01 |  | 0.893 | 0.677 | 0.436 | 0.329 | 0.274 | 0.267 | 0.533 | 0.472 | 0.354 | 0.219 | 0.932 | 0.681 | 0.352 | 0.325
12 | H3255 | 0.647 | 0.819 | 0.664 | 0.616 | 0.289 | 0.234 | 0.256 | 0.255 | 0.361 | 0.307 | 0.346 | 0.386 | 0.79 | 0.797 | 0.938 | 0.754 | 0.624 | 0.608 | 0.501 | 0.492
13 | HARA | 0.618 | 0.578 | 0.684 | 0.553 | 0.714 | 0.564 | 0.753 | 0.697 | 0.241 | 0.268 | 0.26 | 0.276 | 0.523 | 0.595 | 0.447 | 0.482 | 0.436 | 0.328 | 0.549 | 0.766
14 | HCC-15 | 0.585 | 0.646 | 0.684 | 0.448 | 0.721 | 0.871 | 0.795 | 0.661 | 0.54 | 0.587 | 0.559 | 0.463 | 0.773 | 0.865 | 0.818 | 0.718 | 0.857 | 0.73 | 1.04 | 0.499
15 | HCC-44 | 0.952 | 0.983 | 1.07 | 1 | 0.934 | 1.01 | 0.981 | 1.04 |  |  |  |  | 1.08 | 1.12 | 1.18 | 1.07 | 0.995 | 1.01 | 1.06 | 1
16 | HCC-78 | 0.913 | 0.664 | 0.825 | 0.653 | 0.93 | 0.585 | 0.604 | 0.732 | 0.462 | 0.379 | 0.364 | 0.392 | 0.474 | 0.419 | 0.399 | 0.352 | 1.1 | 0.811 | 0.882 | 0.605
